The record followed here is PMC9981719, “A novel designed membrane-active peptide for the control of foodborne Salmonella enterica serovar Typhimurium” (Scientific Reports, 2023).

In brackets after ≈: the same amount, converted by molar mass. Read-outs that look alike come from different tables or passages of the source. Where no end group is shown, it is not given here.

Data set [1] deals with L929 mouse fibroblast cells. The experiment in a line: In vitro cytotoxicity, MTT assay. The note with it: 0.98–250 µg/ml, 24 h. The format is cell-based. The method, then: The cytotoxicity of A11 was evaluated by the 3-(4,5 dimethylthiazol-2-yl)-2,5-diphenyltetrazolium bromide (MTT) assay. L929 mouse fibroblast cells were cultured in Dulbecco's Modified Eagle Medium (DMEM) supplemented with 1% (v/v) of 100 IU/ml penicillin/streptomycin and 10% (v/v) fetal bovine serum (FBS). The cells were maintained in an air atmosphere containing the 5% CO2 under high humidity at 37 °C. L929 cell lines were seeded into a sterile 96-well plate (1 × 10^4 cells/well) then incubated overnight and treated with different concentrations of A11 (0.98–250 µg/ml) for 24 h. Media were removed, and cultured cells were incubated with 100 µl of MTT solution (4 mg/ml) for 4 h at 37 °C. After removal of MTT solution, the formed formazan was dissolved in 100 µl DMSO. Absorbance was measured by microplate reader at 570 nm; untreated cells served as negative control and melittin-treated cells as a positive control. Cell viability was determined following this equation: Cell viability%=ODTreated/ODControl×100
(In general: Tetrazolium dyes change colour on reduction, which living cells bring about.)

Data set [2] deals with all Gram-negative strains. Description: Geometric mean of MICs and therapeutic index, Gram-negative strains. The format is cell-based. To be noted: 4 Gram-negative strains. The text has this: (§1) All tests were done in triplicate.
For data set [3], the system named is Salmonella Typhimurium ATCC 13311. The format is cell-based, Salmonella enterica serovar Typhimurium.
Description: as §1

The subject of data set [4] is all Gram-positive strains. Description: Geometric mean of MICs and therapeutic index, Gram-positive strains. The format is cell-based. To be noted: 4 Gram-positive strains.
Description: as §1

The test system of data set [5] is Staphylococcus epidermidis ATCC 12228. The format is cell-based. To be noted: for MBC: ATCC 12228, 18 h.
Description: as §1

The subject of data set [6] is Bacillus cereus ATCC 11778. The format is cell-based.
Description: as §1

The test system of data set [7] is Acinetobactero baumanii MT strain. The format is cell-based. The note with it: for MIC: 24 h.
Description: as §1

The subject of data set [8] is Shigella sonnei ATCC11060. The format is cell-based. The note with it: triplicate; for MIC: broth microdilution in MHB, 37 °C, 24 h; for MBC: colony count on TSA from non-turbid MIC wells.
Description: as §1
In general terms: In broth dilution the organism is exposed to a series of concentrations in liquid medium.

Data set [9] concerns Listeria monocytogenes 10403s. The format is cell-based. The note with it: for MIC: 24 h.
Description: as §1

For data set [10], the system named is Pseudomonas aeruginosa ATCC 27853. The format is cell-based.
Description: as §1

In data set [11] the test system is panel of human pathogenic bacterial strains. The note with it: summary over all tested strains of Table 1.
Description: Four Gram-negative bacteria including Salmonella enterica serovar Typhimurium (S. Typhimurium) ATCC 13311 and 16 drug-resistant S. enterica isolates (S. Typhimurium and monophasic variant 4,5,12:i:-), and four Gram-positive bacteria (Staphylococcus aureus ATCC 25923, Staphylococcus epidermidis ATCC 12228, Bacillus cereus ATCC 11778, and Listeria monocytogenes 10403s) were used as test microorganisms. […] All bacterial strains were cultured in a proper medium at 37 °C for 18 h (Table 1).
The minimum inhibitory concentration (MIC) of each peptide was evaluated by broth microdilution assay according to a modification described by the National Committee for Clinical Laboratory Standards (NCCLS)[22]. Mid-logarithmic phase bacterial cells were adjusted to an OD620 of 0.05 in Mueller–Hinton broth (MHB), a universal medium for antibacterial susceptibility testing[23]. Then, 50 µl of bacterial solution was incubated with 50 µl of two-fold serially diluted peptide (0.98–250 µg/ml in PBS) at 37 °C for 24 h with continuous shaking. […] The minimal bactericidal concentration (MBC) of each peptide was determined using a colony count assay. Fifty microliter aliquots of the mixture from each non-turbid well (no growth) from the MIC experiment was spread on Tryptic soy agar (TSA) and cultured overnight at 37 °C. […]
Data set [12] relates to Staphylococcus aureus ATCC 25923. The format is cell-based. The note with it: for MBC: ATCC 25923, 18 h; for MIC: ATCC 25923, 24 h.
Description: as §1

[13] abbreviates: broth microdilution in MHB, 37 °C, 24 h, triplicate.
The mark [14] stands for this setting: colony count on TSA from non-turbid MIC wells, triplicate.
[15] abbreviates: broth microdilution in MHB, 37 °C, triplicate.

In the case of `CC[C@H](C)[C@H](NC(=O)CN)C(=O)NCC(=O)N[C@@H](C)C(=O)N[C@H](C(=O)N[C@@H](CC(C)C)C(=O)N[C@@H](CCCCN)C(=O)N[C@H](C(=O)N[C@@H](CC(C)C)C(=O)N[C@H](C(=O)N[C@H](C(=O)NCC(=O)N[C@@H](CC(C)C)C(=O)N1CCC[C@H]1C(=O)N[C@@H](C)C(=O)N[C@@H](CC(C)C)C(=O)N[C@H](C(=O)N[C@@H](CO)C(=O)N[C@@H](Cc1c[nH]c2ccccc12)C(=O)N[C@H](C(=O)N[C@@H](CCCCN)C(=O)N[C@@H](CCCNC(=N)N)C(=O)N[C@@H](CCCCN)C(=O)N[C@@H](CCCNC(=N)N)C(=O)N[C@@H](CCC(N)=O)C(=O)N[C@@H](CCC(N)=O)C(N)=O)[C@@H](C)CC)[C@@H](C)CC)[C@@H](C)O)[C@@H](C)O)C(C)C)C(C)C` [Melittin, reference compound], the “cytotoxicity toward L929 cells (cell viability, MTT)” value in [1] is “strongly cytotoxic”. Further, the “GM (Gr.- strains), geometric mean of MIC values from all Gram-negative strains” value in [2] amounted to 6.8 µg/mL. Moreover, the MIC in [3] (broth microdilution in MHB, 37 °C, 24 h, visible inspection, triplicate) was 3.91 (3.91) µg/ml; in data set [5] (setting [13]) it was 3.91 (3.91) µg/ml; in data set [6] (setting [13]) it was 3.91 µg/mL (≈ 1.37 µM); in data set [7] (setting [15]), 7.81 (7.81) µg/ml; in data set [8], 3.91 µg/mL (≈ 1.37 µM); in data set [9] (setting [15]), 3.91 (3.91) µg/ml. In addition, the MIC in [10] (setting [13]) is 15.63 (15.63) µg/ml. In addition, the MBC in data set [3] (colony count on TSA from non-turbid MIC wells, overnight 37 °C, triplicate) was 3.91 (3.91) µg/ml; in data set [6] (setting [14]), 7.81 µg/mL (≈ 2.74 µM); in [7] (setting [14]), 7.81 (7.81) µg/ml; in data set [8], 7.81 µg/mL (≈ 2.74 µM); in data set [9] (setting [14]) it was 3.91 (3.91) µg/ml; in data set [10] (setting [14]) it was 15.63 (15.63) µg/ml. Besides, the “GM (Gr. + strains), geometric mean of MIC values from all Gram-positive strains” value in data set [4] stood at 3.91 µg/mL.
As for “GNPKVAHCASQIGRSTAWGAVSGA-NH2 [A0, acidocin J1132β, reference compound]”, the MBC is listed as > 250 (> 250) µg/ml in data set [3] (ATCC 13311, 18 h); > 250 (> 250) µg/ml in data set [5]; > 250 (> 250) µg/ml in data set [6] (ATCC 11778, 18 h); > 250 (> 250) µg/ml in data set [12]; > 250 (> 250) µg/ml in data set [7] (18 h); > 250 (> 250) µg/ml in [9] (10403s, 18 h). Also, in data set [10] (ATCC 27853, 18 h), the MBC is recorded as > 250 (> 250) µg/ml. Also, the MIC in [3] (ATCC 13311, 24 h) is > 250 (> 250) µg/ml; in [5] (ATCC 12228, 24 h), > 250 (> 250) µg/ml; in data set [6] (ATCC 11778, 24 h), > 250 (> 250) µg/ml; in data set [12], > 250 (> 250) µg/ml; in data set [7], > 250 (> 250) µg/ml; in data set [9] (10403s) it was > 250 (> 250) µg/ml. The MIC in data set [10] (ATCC 27853, 24 h) was > 250 (> 250) µg/ml. In data set [11], the “MIC over the tested bacteria” value is above 250 µg/mL.
In the case of GVKKVAHKVVKIGRKVAW-NH2 [A6], the MBC is 62.5 (62.5) µg/ml in [3] (ATCC 13311, 18 h); > 250 (> 250) µg/ml in [5]; > 250 (> 250) µg/ml in data set [6] (ATCC 11778, 18 h); > 250 (> 250) µg/ml in data set [12]; 31.25 (31.25) µg/ml in data set [7] (18 h); 125 µg/mL in [8]. Further, the MBC in data set [9] (10403s, 18 h) was 250 (> 250) µg/ml; in [10] (ATCC 27853, 18 h), 250 µg/mL. Besides, the MIC in data set [3] (ATCC 13311, 24 h) is 62.5 (62.5) µg/ml; in [5] (ATCC 12228, 24 h), > 250 (> 250) µg/ml; in [6] (ATCC 11778, 24 h) it was > 250 (> 250) µg/ml; in [12], > 250 (> 250) µg/ml; in [7] it was 31.25 (31.25) µg/ml; in data set [8] it was 62.5 µg/mL. The MIC in data set [9] (10403s) was 250 (> 250) µg/ml; in data set [10] (ATCC 27853, 24 h) it was 125 µg/mL.
For GVKKVAHKVVKIGRKVAWGAVSGV-NH2 [A4], the MBC in [3] (ATCC 13311, 18 h) is 31.25 (31.25) µg/ml; in [5], 250 (250) µg/ml; in [6] (ATCC 11778, 18 h), > 250 (> 250) µg/ml; in data set [12], > 250 (> 250) µg/ml; in data set [7] (18 h), 31.25 µg/mL; in data set [9] (10403s, 18 h) it was 250 (> 250) µg/ml. Further, the MBC in data set [10] (ATCC 27853, 18 h) was 250 (250) µg/ml. Further, the MIC in data set [3] (ATCC 13311, 24 h) was 31.25 (31.25) µg/ml; in data set [5] (ATCC 12228, 24 h), 250 (250) µg/ml; in [6] (ATCC 11778, 24 h), > 250 (> 250) µg/ml; in data set [12], > 250 (> 250) µg/ml; in data set [7], 15.63 µg/mL; in [9] (10403s), 250 (> 250) µg/ml. For the same molecule, the MIC in [10] (ATCC 27853, 24 h) is reported as 250 (250) µg/ml.
GVKKVARKVVKIGRKVAR-NH2 [A9]: the MBC in data set [3] (ATCC 13311, 18 h) was 62.5 (62.5) µg/ml; in data set [5], above 250 µg/mL; in data set [6] (ATCC 11778, 18 h) it was > 250 (> 250) µg/ml; in data set [12] it was > 250 (> 250) µg/ml; in data set [7] (18 h), 125 µg/mL; in data set [9] (10403s, 18 h), 250 (> 250) µg/ml. The MBC in [10] (ATCC 27853, 18 h) is on record as 250 (250) µg/ml. The MIC in data set [3] (ATCC 13311, 24 h) was 62.5 (62.5) µg/ml; in data set [5] (ATCC 12228, 24 h), 62.5 µg/mL; in data set [6] (ATCC 11778, 24 h), > 250 (> 250) µg/ml; in data set [12] it was > 250 (> 250) µg/ml; in [9] (10403s), 250 (> 250) µg/ml; in data set [10] (ATCC 27853, 24 h) it was 250 (250) µg/ml.
